# Results reported in patent publication US11827627B2, “N-(hydroxyalkyl (hetero)aryl) tetrahydrofuran carboxamides as modulators of sodium channels” (VERTEX PHARMACEUTICALS INCORPORATED, priority 2021, dated 2023).
# Target: human NaV 1.8 (Homo sapiens, UniProt Q9Y5Y9)
# Assay: E-VIPR assay detecting and measuring NaV inhibition properties
# Format: cell-based
# Conditions: HEK cells expressing a truncated form of human NaV 1.8; electrical stimulation, membrane potential FRET dyes
# Outline: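 HEK cells expressing truncated full-activity NaV 1.8, co-transduced with KIR2.1 BacMam, seeded 16-20 h before assay. Electrical stimulation with FRET membrane-potential dyes (CC2-DMPE/DiSBAC6(3)) in HEPES-buffered bath solutions; 25% human serum final.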
# human NaV 1.8, sequence (Q9Y5Y9 126-1722 limits assumed): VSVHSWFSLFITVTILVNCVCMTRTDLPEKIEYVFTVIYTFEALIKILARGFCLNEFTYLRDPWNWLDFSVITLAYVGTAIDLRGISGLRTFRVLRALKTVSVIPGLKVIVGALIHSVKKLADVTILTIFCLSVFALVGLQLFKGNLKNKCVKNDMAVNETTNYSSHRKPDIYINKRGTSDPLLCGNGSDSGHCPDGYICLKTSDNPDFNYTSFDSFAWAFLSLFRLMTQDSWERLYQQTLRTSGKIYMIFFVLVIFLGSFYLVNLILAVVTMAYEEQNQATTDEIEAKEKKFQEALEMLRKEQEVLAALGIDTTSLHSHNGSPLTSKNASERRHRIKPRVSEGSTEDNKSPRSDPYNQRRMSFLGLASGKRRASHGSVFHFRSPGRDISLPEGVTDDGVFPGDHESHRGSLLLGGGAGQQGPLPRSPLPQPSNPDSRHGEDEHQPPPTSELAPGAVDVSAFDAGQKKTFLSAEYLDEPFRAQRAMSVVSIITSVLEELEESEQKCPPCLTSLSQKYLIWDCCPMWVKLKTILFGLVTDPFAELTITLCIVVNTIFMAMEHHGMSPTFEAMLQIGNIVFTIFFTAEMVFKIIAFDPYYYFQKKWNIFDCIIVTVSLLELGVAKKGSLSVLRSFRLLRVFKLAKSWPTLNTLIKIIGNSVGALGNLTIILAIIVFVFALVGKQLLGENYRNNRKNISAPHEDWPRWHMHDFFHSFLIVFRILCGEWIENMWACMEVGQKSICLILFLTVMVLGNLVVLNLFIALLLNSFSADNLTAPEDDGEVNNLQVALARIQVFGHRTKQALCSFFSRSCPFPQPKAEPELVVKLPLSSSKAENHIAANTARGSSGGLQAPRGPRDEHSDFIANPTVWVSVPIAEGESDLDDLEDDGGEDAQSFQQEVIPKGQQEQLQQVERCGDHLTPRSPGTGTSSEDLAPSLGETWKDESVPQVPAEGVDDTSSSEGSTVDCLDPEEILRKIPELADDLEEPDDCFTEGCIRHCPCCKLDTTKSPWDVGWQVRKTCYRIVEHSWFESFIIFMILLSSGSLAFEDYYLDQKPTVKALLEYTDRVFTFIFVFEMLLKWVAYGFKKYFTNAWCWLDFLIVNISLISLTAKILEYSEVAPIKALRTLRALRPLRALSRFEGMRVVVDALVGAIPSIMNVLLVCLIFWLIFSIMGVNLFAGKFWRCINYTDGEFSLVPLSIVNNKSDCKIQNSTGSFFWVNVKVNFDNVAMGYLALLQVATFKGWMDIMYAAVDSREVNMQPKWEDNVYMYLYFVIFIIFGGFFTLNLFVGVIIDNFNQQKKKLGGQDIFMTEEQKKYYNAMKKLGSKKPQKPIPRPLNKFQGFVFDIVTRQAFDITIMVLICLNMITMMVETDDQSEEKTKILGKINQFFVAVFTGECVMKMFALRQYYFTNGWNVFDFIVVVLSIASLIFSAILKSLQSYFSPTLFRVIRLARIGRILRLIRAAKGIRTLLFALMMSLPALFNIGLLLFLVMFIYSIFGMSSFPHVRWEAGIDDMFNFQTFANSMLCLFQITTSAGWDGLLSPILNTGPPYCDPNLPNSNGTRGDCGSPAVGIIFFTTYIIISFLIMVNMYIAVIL
row,Compound,IC50 [nM]
1,"C[C@H]1[C@@H](c2ccc(F)c(F)c2O)[C@H](C(=O)Nc2ccc([C@@H](O)CO)nc2)O[C@@]1(C)C(F)(F)F [Compound 36, (2R,3S,4S,5R)-3-(3,4-difluoro-2-hydroxyphenyl)-N-(6-((R)-1,2-dihydroxyethyl)pyridin-3-yl)-4,5-dimethyl-5-(trifluoromethyl)tetrahydrofuran-2-carboxamide]",100 to 1000
2,"C[C@H]1[C@@H](c2ccc(F)c(F)c2OCCF)[C@H](C(=O)Nc2ccc([C@@H](O)CO)nc2)O[C@@]1(C)C(F)(F)F [Compound 37, (2R,3S,4S,5R)-3-(3,4-difluoro-2-(2-fluoroethoxy)phenyl)-N-(6-((R)-1,2-dihydroxyethyl)pyridin-3-yl)-4,5-dimethyl-5-(trifluoromethyl)tetrahydrofuran-2-carboxamide]",< 10
3,"C[C@H]1[C@@H](c2ccc(F)c(F)c2OCC(F)F)[C@H](C(=O)Nc2ccc([C@@H](O)CO)nc2)O[C@@]1(C)C(F)(F)F [Compound 38, (2R,3S,4S,5R)-3-(2-(2,2-difluoroethoxy)-3,4-difluorophenyl)-N-(6-((R)-1,2-dihydroxyethyl)pyridin-3-yl)-4,5-dimethyl-5-(trifluoromethyl)tetrahydrofuran-2-carboxamide]",< 10
4,"C[C@H]1[C@@H](c2ccc(F)c(F)c2O)[C@H](C(=O)Nc2cnc(CO)nc2)O[C@@]1(C)C(F)(F)F [Compound 39, (2R,3S,4S,5R)-3-(3,4-difluoro-2-hydroxyphenyl)-N-(2-(hydroxymethyl)pyrimidin-5-yl)-4,5-dimethyl-5-(trifluoromethyl)tetrahydrofuran-2-carboxamide]",≥ 1000
5,"COc1c([C@H]2[C@H](C(=O)Nc3ccc([C@@H](O)CO)[n+]([O-])c3)O[C@@](C)(C(F)(F)F)[C@H]2C)ccc(F)c1F [Compound 60, 5-((2R,3S,4S,5R)-3-(3,4-difluoro-2-methoxyphenyl)-4,5-dimethyl-5-(trifluoromethyl)tetrahydrofuran-2-carboxamido)-2-((R)-1,2-dihydroxyethyl)pyridine 1-oxide]",< 10
6,"COc1c([C@H]2[C@H](C(=O)Nc3cnc(CO)c(F)c3)O[C@@](C)(C(F)(F)F)[C@H]2C)ccc(F)c1F [Compound 83, (2R,3S,4S,5R)-3-(3,4-difluoro-2-methoxyphenyl)-N-(5-fluoro-6-(hydroxymethyl)pyridin-3-yl)-4,5-dimethyl-5-(trifluoromethyl)tetrahydrofuran-2-carboxamide]",< 10
7,"COc1c([C@H]2[C@H](C(=O)Nc3ccc([C@@H](C)O)nc3)O[C@@](C)(C(F)(F)F)[C@H]2C)ccc(F)c1F [Compound 84, (2R,3S,4S,5R)-3-(3,4-difluoro-2-methoxyphenyl)-N-(6-((R)-1-hydroxyethyl)pyridin-3-yl)-4,5-dimethyl-5-(trifluoromethyl)tetrahydrofuran-2-carboxamide]",< 10
8,"COc1c([C@H]2[C@H](C(=O)Nc3ccc([C@H](C)O)nc3)O[C@@](C)(C(F)(F)F)[C@H]2C)ccc(F)c1F [Compound 85, (2R,3S,4S,5R)-3-(3,4-difluoro-2-methoxyphenyl)-N-(6-((S)-1-hydroxyethyl)pyridin-3-yl)-4,5-dimethyl-5-(trifluoromethyl)tetrahydrofuran-2-carboxamide]",10 to 100
9,"COc1c([C@H]2[C@H](C(=O)Nc3cnc(CO)cn3)O[C@@](C)(C(F)(F)F)[C@H]2C)ccc(F)c1F [Compound 86, (2R,3S,4S,5R)-3-(3,4-difluoro-2-methoxyphenyl)-N-(5-(hydroxymethyl)pyrazin-2-yl)-4,5-dimethyl-5-(trifluoromethyl)tetrahydrofuran-2-carboxamide]",10 to 100
10,"COc1c([C@H]2[C@H](C(=O)Nc3cnc(CO)c(CO)c3)O[C@@](C)(C(F)(F)F)[C@H]2C)ccc(F)c1F [Compound 87, (2R,3S,4S,5R)-N-(5,6-bis(hydroxymethyl)pyridin-3-yl)-3-(3,4-difluoro-2-methoxyphenyl)-4,5-dimethyl-5-(trifluoromethyl)tetrahydrofuran-2-carboxamide]",100 to 1000
